The text below walks through data of patent US20220242856A1, “CANNABINOID DERIVATIVES” (CANOPY GROWTH CORPORATION, priority 2019, published 2022).

Experiment [1] deals with T1, human CB1 receptor (Homo sapiens, UniProt P21554).
T1 construct: host or cells: CHO-K1
The experiment is described as follows: CB1 radioligand competitive binding assay ([3H]CP 55,940 displacement). Conditions: for Selectivity CB1: fold difference in selectivity between CB1 and CB2 binding, printed in the column of the receptor with higher affinity, 1.00 = about the same affinity.

The next experiment addresses T2, human CB2 receptor (Homo sapiens, UniProt P34972).
T2 construct: host or cells: CHO-K1
Kind of experiment: CB2 radioligand competitive binding assay ([3H]CP 55,940 displacement). The note with it: for Selectivity CB2: fold difference in selectivity between CB1 and CB2 binding, printed in the column of the receptor with higher affinity, 1.00 = about the same affinity. As for the experimental part: Compounds of the present disclosure were tested for CB1 receptor binding affinity and for CB2 receptor binding affinity. As used herein, “binding affinity” is represented by the IC50 value, which was experimentally determined as described herein. The lower the IC50 value the higher the binding affinity. A compound of the present disclosure may be said to have “binding selectivity” if it has a higher binding affinity for one receptor compared to the other.
The membranes were prepared from CHO-K1 (Chinese hamster ovary) cells stably transfected with the human CB2 receptor (Cat.# ES-111-C; Perkin Elmer, Boston, Mass.). The cells were grown adherently and maintained in Ham's F12 medium containing 10% fetal bovine serum (FBS), penicillin, streptomycin and geneticin (G418) at 37° C. in a humid atmosphere of 5% CO2 following the manufacturer's instructions.
For membrane preparation the cells were washed with PBS and scraped off the plates in cold homogenization buffer (25 mM HEPES (pH 7.4), 2 mM EDTA) containing protease inhibitor cocktail (Sigma Cat.# P8340). The cell suspension was homogenized with a Pro-PK-01200D Polytron Homogenizer (Pro Scientific) and then centrifuged for 30 min at 120,000×g. The supernatant was discarded and the pellet was re-suspended in the homogenization buffer and stored at −80° C. until the time of use.
In this experiment, 3H radiolabeled CP 55,940, i.e. [3H]CP 55,940 (Perkin Elmer, Boston, Mass.), was used as a radioligand for the CB2 receptor to determine the binding affinity of compounds for the CB2 receptor (Scheme 7; above).
The competition binding experiments (single dose and dose-response) were performed by incubating 0.6 nM of [3H]CP55,940 (specific activity 101 Ci/mmol, Perkin Elmer) and different concentrations of compounds disclosed herein with membranes prepared as above from CHO-K1 cells expressing human CB2 receptor (1 μg of protein/well), 50 mM Tris-HCl (pH 7.4), 5 mM MgCl2, 1 mM CaCl2, and 2 mg/mL BSA.
For the single dose experiments, the compound stocks (usually 10 mM in DMSO) were diluted to working stocks in the binding buffer to give the final compound concentrations of 10 μM and 1 μM. For the dose-response experiments the test compounds were sequentially diluted to provide the desired concentration range for the IC50 determination. In each case the compounds were pre-incubated with the membrane for 20 min, before adding the radioligand.
After incubation with the radioligand for 60 min at 37° C., the incubation was terminated by rapid filtration of assay mixture through MultiScreen®HTS^+ 96-well filter plates (Millipore, Cat.# MSFCNXB), pre-soaked for 60 min with 50 mM Tris-HCl (pH 7.4) containing 0.33% polyethylenimine (PEI). The nonspecific binding (NSB) was determined in the presence of 10 μM unlabelled CP55,940. After drying the filter plate at 50° C. for at least 60 min, the filter-bound radioactivity was determined by scintillation spectrometry using the 1450 MicroBeta Plate Counter (Perkin Elmer, Boston, Mass.). From the dose-response experiments, the IC50 values were determined (see Table 1, CB2 IC50).

In experiment [2] the target is T1, human CB1 receptor. The experiment is described as follows: PathHunter β-arrestin functional assay, CB1 receptor, agonist mode. The experiment is classed as cell-based. The note with it: PathHunter CHO-K1 CNR1 β-Arrestin cells; normalized to CP55,940. From the text:
(§1) In the PathHunter® β-Arrestin system from DiscoveRx (Eurofins, Fremont, Calif.), a small peptide, the ProLink™ (PK), is fused to the intracellular sequence of a GPCR target, and a complementing peptide, the enzyme acceptor (EA) fragment, is fused to β-arrestin. After binding to its specific ligand, the GPCR target recruits β-arrestin, forcing the complementation of the two β-galactosidase enzyme fragments (EA and PK) to produce a functional β-galactosidase enzyme. The enzyme activity, and thus the amount of ligand bound to the GPCR, is detected with a single addition of a reagent cocktail to lyse the cells and produce a chemiluminescent signal before being analyzed using a traditional plate reader.
(§2) PathHunter® CHO-K1 CNR1 β-Arrestin cells (DiscoverRx, cat. Number 93-0959C2) stably expressing CB1 receptor (CB1R) were grown in Ham's F12 medium containing 10% fetal bovine serum (FBS), 1% penicillin/streptomycin, 300 μg/mL Hygromycin B and 800 μg/mL geneticin (G418) and maintained in 37° C. incubators at 5% CO2. […]
(§3) The incubation was terminated by adding the detection reagent (19 parts of 1% CHAPS, 5 parts Emerald-II and 1 part Galacton-Star), equivalent to 50% of the assay volume to each wells. Plates were incubated for 1 hour in the dark at room temperature, followed by chemiluminescence detection using a microplate reader.
(§4) Data were analysed by generating nonlinear regression curves. […]

For experiment [3], the target named is T1, human CB1 receptor. Kind of experiment: PathHunter β-arrestin functional assay, CB1 receptor, antagonist mode. The experiment is classed as cell-based.
Excerpt: as §1, §2, §3, §4

T2 sequence (P34972 whole entry): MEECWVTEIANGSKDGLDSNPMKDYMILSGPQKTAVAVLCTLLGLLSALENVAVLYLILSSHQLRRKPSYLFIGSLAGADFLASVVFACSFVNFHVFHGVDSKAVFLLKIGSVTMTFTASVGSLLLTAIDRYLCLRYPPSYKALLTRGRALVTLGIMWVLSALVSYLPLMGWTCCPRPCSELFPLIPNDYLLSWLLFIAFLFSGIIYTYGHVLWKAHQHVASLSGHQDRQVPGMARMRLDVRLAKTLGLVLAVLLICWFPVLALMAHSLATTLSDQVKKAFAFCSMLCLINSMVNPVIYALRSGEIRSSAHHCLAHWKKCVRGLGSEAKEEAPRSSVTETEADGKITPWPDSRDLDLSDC
T1 sequence (P21554 whole entry): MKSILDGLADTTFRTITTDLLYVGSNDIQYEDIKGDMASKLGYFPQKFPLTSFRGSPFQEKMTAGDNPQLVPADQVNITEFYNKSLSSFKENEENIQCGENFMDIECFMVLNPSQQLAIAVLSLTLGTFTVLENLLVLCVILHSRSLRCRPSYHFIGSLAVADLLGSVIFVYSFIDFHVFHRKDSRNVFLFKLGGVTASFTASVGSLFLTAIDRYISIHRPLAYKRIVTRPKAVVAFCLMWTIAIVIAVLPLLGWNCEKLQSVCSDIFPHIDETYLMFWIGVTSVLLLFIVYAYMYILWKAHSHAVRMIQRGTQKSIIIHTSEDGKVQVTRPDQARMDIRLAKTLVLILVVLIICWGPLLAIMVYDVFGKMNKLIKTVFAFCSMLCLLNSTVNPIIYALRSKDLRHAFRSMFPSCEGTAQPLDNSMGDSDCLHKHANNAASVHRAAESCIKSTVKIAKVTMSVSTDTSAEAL

For `CCCCCc1cc2c(c(O)c1-c1cn[nH]c1)[C@@H]1C=C(C)CC[C@H]1C(C)(C)O2` [Compound 35b, 6,6,9-trimethyl-3-pentyl-2-(1H-pyrazol-4-yl)-6a,7,8,10a-tetrahydro-6H-benzo[c]chromen-1-ol], the IC50 on human CB1 receptor [1] was greater than 1000 nM. On human CB2 receptor, the IC50 was 500 to 990 nM and the “Selectivity CB2” value worked out at 2.64 fold.
The corresponding values for `CCCCCc1cc2c(c(O)c1-c1ccnn1C)[C@@H]1C=C(C)CC[C@H]1C(C)(C)O2` [Compound 33b, 6,6,9-trimethyl-2-(1-methyl-1H-pyrazol-5-yl)-3-pentyl-6a,7,8,10a-tetrahydro-6H-benzo[c]chromen-1-ol] are 100 to 490 nM, 100 to 490 nM and 1.61 fold.
The corresponding values for `CCCCCc1cc2c(c(O)c1-c1ccsc1)[C@@H]1C=C(C)CC[C@H]1C(C)(C)O2` [Compound 17b, 6,6,9-trimethyl-3-pentyl-2-(thiophen-3-yl)-6a,7,8,10a-tetrahydro-6H-benzo[c]chromen-1-ol] are 100 to 490 nM, less than 100 nM and 3.43 fold.
Take `CCCCCc1cc2c(c(O)c1-c1ccco1)[C@@H]1C=C(C)CC[C@H]1C(C)(C)O2` [Compound 15b, 2-(furan-2-yl)-6,6,9-trimethyl-3-pentyl-6a,7,8,10a-tetrahydro-6H-benzo[c]chromen-1-ol]: at human CB1 receptor [1], the IC50 is less than 100 nM and the “Selectivity CB1” value was 1.00 fold. Also, at human CB2 receptor, the IC50 is less than 100 nM and the “Selectivity CB2” value worked out at 1.00 fold.
On to `CCCCCc1cc2c(c(O)c1-c1cc3ccccc3o1)[C@@H]1C=C(C)CC[C@H]1C(C)(C)O2` [Compound 34b, 2-(benzofuran-2-yl)-6,6,9-trimethyl-3-pentyl-6a,7,8,10a-tetrahydro-6H-benzo[c]chromen-1-ol], for which, at human CB1 receptor [1], the IC50 lay within 500 to 990 nM. Further, at human CB2 receptor, the IC50 lay within 100 to 490 nM and the “Selectivity CB2” value came to 4.41 fold.
Consider `CCCCCc1cc2c(c(O)c1-c1cncs1)[C@@H]1C=C(C)CC[C@H]1C(C)(C)O2` [Compound 18b], for which, on human CB1 receptor [1], the IC50 is greater than 1000 nM and the “Selectivity CB1” value was determined as 1.00 fold. Moreover, at human CB2 receptor, the half-maximal inhibitory concentration (IC50) was greater than 1000 nM and the “Selectivity CB2” value was 1.00 fold.
Take `CCCCCc1cc2c(c(O)c1-c1cc3ccccc3s1)[C@@H]1C=C(C)CC[C@H]1C(C)(C)O2` [Compound 36b, 2-(benzothiophen-2-yl)-6,6,9-trimethyl-3-pentyl-6a,7,8,10a-tetrahydrobenzo[c]chromen-1-ol]: the half-maximal inhibitory concentration (IC50) was greater than 1000 nM on human CB1 receptor [1], 100 to 490 nM at human CB2 receptor and roughly 3000 nM against human CB1 receptor [3]. Besides, the “Selectivity CB2” value on human CB2 receptor amounted to 5.67 fold. Further, the “activity towards the human CB1 receptor, agonist mode” value on human CB1 receptor [2] was “minimal to no activity”.
As for `CCCCCc1cc2c(c(O)c1-c1cncnc1)[C@@H]1C=C(C)CC[C@H]1C(C)(C)O2` [Compound 13b, 6,6,9-trimethyl-3-pentyl-2-(pyrimidin-5-yl)-6a,7,8,10a-tetrahydro-6H-benzo [c] chromen-1-ol], the IC50 at human CB1 receptor [1] was greater than 1000 nM; at human CB2 receptor, 500 to 990 nM. Moreover, the “Selectivity CB2” value at human CB2 receptor was 5.00 fold.
`CCCCCc1cc2c(c(O)c1-c1cccnc1)[C@@H]1C=C(C)CC[C@H]1C(C)(C)O2` [Compound 12b, 6,6,9-trimethyl-3-pentyl-2-(pyridin-3-yl)-6a,7,8,10a-tetrahydro-6H-benzo[c]chromen-1-ol]: the IC50 on human CB1 receptor [1] was in the range of 500 to 990 nM. Further, on human CB2 receptor, the half-maximal inhibitory concentration (IC50) lay in the range of 500 to 990 nM and the “Selectivity CB2” value came out at 1.57 fold. At human CB1 receptor [2], the “activity towards the human CB1 receptor, agonist mode” value was “minimal to no activity”.
In turn, `CCCCCc1cc2c(c(O)c1-c1ccncc1)[C@@H]1C=C(C)CC[C@H]1C(C)(C)O2` [Compound 14b, 6,6,9-trimethyl-3-pentyl-2-(pyridin-4-yl)-6a,7,8,10a-tetrahydro-6H-benzo[c]chromen-1-ol] returned an IC50 on human CB1 receptor [1] of 100 to 490 nM. On human CB2 receptor, the IC50 lay in the range of 100 to 490 nM and the “Selectivity CB2” value is 1.77 fold.

Broadly, the IC50 is the midpoint of a concentration-inhibition curve. Lower therefore signals greater potency.
